Assays:
[1] = target: T1, ATP-dependent translocase ABCB1 (Homo sapiens, UniProt P08183); assay: TP_TRANSPORTER: RNase protection assay in embryonic 293 cells; assay type: functional, cell-based; conditions: hek293
[2] = target: T1, ATP-dependent translocase ABCB1; assay: TP_TRANSPORTER: RNase protection assay in HepG2 cells; assay type: functional, cell-based

T1 sequence (P08183 whole entry): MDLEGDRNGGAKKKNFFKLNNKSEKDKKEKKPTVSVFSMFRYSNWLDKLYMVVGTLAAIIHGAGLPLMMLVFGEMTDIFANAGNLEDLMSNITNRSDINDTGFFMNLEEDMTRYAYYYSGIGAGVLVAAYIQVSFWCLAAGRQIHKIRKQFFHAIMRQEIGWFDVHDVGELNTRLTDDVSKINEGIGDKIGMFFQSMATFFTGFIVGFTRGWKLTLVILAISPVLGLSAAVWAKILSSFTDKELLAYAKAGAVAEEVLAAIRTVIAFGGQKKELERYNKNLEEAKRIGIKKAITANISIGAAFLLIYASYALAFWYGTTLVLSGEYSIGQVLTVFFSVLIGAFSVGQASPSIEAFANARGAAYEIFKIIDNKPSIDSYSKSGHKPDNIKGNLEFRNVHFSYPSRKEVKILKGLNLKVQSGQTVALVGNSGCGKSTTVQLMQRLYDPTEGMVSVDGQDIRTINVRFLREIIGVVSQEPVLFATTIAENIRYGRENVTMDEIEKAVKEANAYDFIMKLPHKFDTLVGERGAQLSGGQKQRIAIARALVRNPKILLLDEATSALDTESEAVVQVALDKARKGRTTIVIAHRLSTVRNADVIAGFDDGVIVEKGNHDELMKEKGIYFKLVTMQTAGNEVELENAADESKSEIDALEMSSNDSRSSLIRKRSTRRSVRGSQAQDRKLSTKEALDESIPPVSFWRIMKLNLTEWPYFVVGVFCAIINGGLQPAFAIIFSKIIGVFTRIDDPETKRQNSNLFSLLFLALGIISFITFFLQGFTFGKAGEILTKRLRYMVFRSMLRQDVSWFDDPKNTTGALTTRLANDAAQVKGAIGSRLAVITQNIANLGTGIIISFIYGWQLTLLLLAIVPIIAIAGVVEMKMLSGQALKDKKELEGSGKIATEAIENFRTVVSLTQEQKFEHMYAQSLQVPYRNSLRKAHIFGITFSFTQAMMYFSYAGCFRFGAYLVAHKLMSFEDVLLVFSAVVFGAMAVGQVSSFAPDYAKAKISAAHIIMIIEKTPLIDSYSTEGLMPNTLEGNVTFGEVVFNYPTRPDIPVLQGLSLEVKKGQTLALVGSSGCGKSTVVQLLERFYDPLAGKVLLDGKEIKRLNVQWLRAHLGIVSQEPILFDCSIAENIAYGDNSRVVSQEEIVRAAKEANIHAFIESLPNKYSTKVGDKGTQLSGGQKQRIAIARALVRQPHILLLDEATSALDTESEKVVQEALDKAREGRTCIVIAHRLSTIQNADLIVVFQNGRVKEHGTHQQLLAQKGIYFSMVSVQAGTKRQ

Structure (SMILES): CC(=O)Nc1ccc2c(c1)Cc1ccccc1-2 [2-ACETYLAMINOFLUORENE]
- Activity [1]: inducer [+]
- Activity [2]: inducer [+]
